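Interpolation was linear, between the two tested concentrations surrounding the appropriate level; five concentrations were tested over 48 hours in 96-well plates. The concentration for 50% growth inhibition is given as GI50.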 Active and inactive are the calls of the source. Rule as the data show it: active = GI50 up to about 1.1 µM and inactive = higher.
Experiments:
Test in all cases: NCI-60 cell line screen, 48 h
[1] = tested on: SR
[2] = tested on: HCT-15
[3] = tested on: M14
[4] = tested on: 786-0
[5] = tested on: SK-MEL-2
[6] = tested on: CAKI-1
[7] = tested on: SN12C
[8] = tested on: U-251
[9] = tested on: HOP-62
[10] = tested on: Malme-3M
[11] = tested on: OVCAR-8
[12] = tested on: NCI-H460
[13] = tested on: COLO 205
[14] = tested on: KM12
[15] = tested on: NCI-H226
[16] = tested on: SK-MEL-5
[17] = tested on: UACC-257
[18] = tested on: OVCAR-5
[19] = tested on: MDA-MB-435
[20] = tested on: Hs-578T

Structure (SMILES) | GI50 [1] | GI50 [2] [µM] | GI50 [3] | GI50 [4] | GI50 [5] | GI50 [6] | GI50 [7] | GI50 [8] | GI50 [9] | GI50 [10] | GI50 [11] | GI50 [12] | GI50 [13] | GI50 [14] | GI50 [15] | GI50 [16] | GI50 [17] | GI50 [18] | GI50 [19] | GI50 [20]
Cc1cc(N)c2cc(NC(=O)CCCCCCCCC(=O)Nc3ccc4nc(C)cc(N)c4c3)ccc2n1 | 11.7 µM (inactive) | > 100 | > 84.9 µM (inactive) | 28.2 µM (inactive) | > 100 µM (inactive) | > 100 µM (inactive) | 3.87 µM (inactive) | 18.4 µM (inactive) | > 61.9 µM (inactive) | 25.4 µM (inactive) | > 100 µM (inactive) | 2.47 µM (inactive) | 18.1 µM (inactive) | 5.57 µM (inactive) | 2.43 µM (inactive) | 5.58 µM (inactive) | > 50.4 µM (inactive) | > 56 µM (inactive) |  | 
CC(=O)/C=C/c1ccc(C2CC(C)=Nc3c(ccc4c3C(=O)c3ccccc3C4=O)N2)cc1 (stereo not drawn) | > 100 µM (inactive) | 27.2 | 77.3 µM (inactive) | 54.6 µM (inactive) | > 29.6 µM (inactive) | 6.98 µM (inactive) | > 81.5 µM (inactive) | 59.7 µM (inactive) | 58.1 µM (inactive) | 89.1 µM (inactive) | 28.2 µM (inactive) | 30 µM (inactive) | 60.7 µM (inactive) | 3.37 µM (inactive) | 32.2 µM (inactive) | 86.5 µM (inactive) |  | > 86.5 µM (inactive) |  | 
CCOC(=O)CCn1cnc(N)n1 | > 100 µM (inactive) | > 100 | > 100 µM (inactive) | > 100 µM (inactive) | > 100 µM (inactive) | > 100 µM (inactive) | > 100 µM (inactive) | > 100 µM (inactive) | > 100 µM (inactive) | > 100 µM (inactive) | > 100 µM (inactive) | > 100 µM (inactive) | > 100 µM (inactive) | > 100 µM (inactive) | > 100 µM (inactive) | > 100 µM (inactive) | > 100 µM (inactive) | > 100 µM (inactive) |  | 
Cc1cc2nc3c(C#N)c(-c4ccccc4)cc(Nc4ccc(Cl)cc4)n3c2cc1C |  | > 100 | > 100 µM (inactive) | > 100 µM (inactive) | > 100 µM (inactive) | > 100 µM (inactive) | > 100 µM (inactive) | 15.9 µM (inactive) | > 100 µM (inactive) | > 100 µM (inactive) | 48.2 µM (inactive) | 28.5 µM (inactive) | > 100 µM (inactive) | 59.4 µM (inactive) | > 100 µM (inactive) | > 100 µM (inactive) | > 100 µM (inactive) | > 100 µM (inactive) | > 100 µM (inactive) | 
CCC(C)CCOC(=O)c1ccc(/N=C\c2ccc(/C=N/c3ccc(C(=O)OCCC(C)CC)cc3)cc2)cc1 (stereo not drawn) | > 100 µM (inactive) | > 100 | > 100 µM (inactive) | > 100 µM (inactive) | > 100 µM (inactive) | > 100 µM (inactive) | > 100 µM (inactive) | > 100 µM (inactive) | > 100 µM (inactive) | > 100 µM (inactive) | > 100 µM (inactive) | > 100 µM (inactive) | > 100 µM (inactive) |  | > 100 µM (inactive) | > 100 µM (inactive) | > 100 µM (inactive) | > 100 µM (inactive) |  | 
C=C(C)C1CC(=O)C(C)=C(O)C1 (stereo not drawn) | > 100 µM (inactive) | > 100 | > 100 µM (inactive) | > 100 µM (inactive) | > 100 µM (inactive) | > 100 µM (inactive) | > 100 µM (inactive) | > 100 µM (inactive) | > 100 µM (inactive) | > 100 µM (inactive) | > 100 µM (inactive) | > 100 µM (inactive) | > 100 µM (inactive) | > 100 µM (inactive) | > 100 µM (inactive) | > 100 µM (inactive) | > 100 µM (inactive) | > 100 µM (inactive) |  | > 100 µM (inactive)
Nc1ccc2c(c1)C1Oc3ccccc3CC1CO2 (stereo not drawn) | > 100 µM (inactive) | 15.7 | > 100 µM (inactive) | > 100 µM (inactive) | > 100 µM (inactive) | > 100 µM (inactive) | > 100 µM (inactive) | > 100 µM (inactive) | > 100 µM (inactive) | > 100 µM (inactive) | > 100 µM (inactive) |  | > 100 µM (inactive) | > 100 µM (inactive) | > 100 µM (inactive) | > 100 µM (inactive) | > 100 µM (inactive) | > 100 µM (inactive) | > 100 µM (inactive) | 
C=CC1=CC(C)C[C@]1(O)C(=O)OC (stereo partly drawn) | 2.75 µM (inactive) | > 100 | < 0.01 µM (active) | < 0.01 µM (active) | < 0.01 µM (active) | < 0.01 µM (active) | < 0.01 µM (active) | < 0.01 µM (active) | < 0.01 µM (active) | < 0.01 µM (active) | < 0.01 µM (active) | < 0.01 µM (active) | < 0.01 µM (active) | < 0.01 µM (active) | < 0.01 µM (active) | > 100 µM (inactive) | < 0.01 µM (active) | < 0.01 µM (active) |  | 

Reference: ChEMBL document CHEMBL1201862, “PubChem BioAssay data set” (2004)
